For assay [1], the system named is Ba/F3-FGFR3-transfected cells. Nature of the assay: Ba/F3-FGFR3 (plus IL3) cellular proliferation assay, counterscreen with 10 ng/ml murine IL3. It counts as cell-based. The note with it: plus IL3 (10 ng/ml murine IL3, counterscreen); read-out: BAF3-FGFR3 (PLUS IL3) pIC50 (converted). The essentials:
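Ba/F3 cells transfected with FGFR3 were seeded at 20000 cells/well in phenol red-free RPMI-1640 with 10% FBS over compound in DMSO and kept 24 hours at 37° C, 5% CO2. Alamar Blue (resazurin) was then added for 4 hours and fluorescence read at ex 540/em 590 nm. The counterscreen repeated this with 10 ng/ml murine IL3.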

Another assay deals with KDR (h) (Homo sapiens, UniProt P35968). The assay can be described thus: KDR (VEGFR2) (enzymatic assay), TR-FRET. The assay is classed as biochemical. As to conditions: read-out: VEGFR 2 (KDR) pIC50 (converted). An outline of the steps: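 Phosphorylation of biotinylated Flt3 peptide (500 nM) by 150 ng/ml enzyme was measured at 3 μM ATP in Mn2+-containing HEPES buffer, pH 7.5, over 120 min at room temperature. Detection used Eu-anti-P-Tyr and SA-XL-665 TR-FRET.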
Sequence of KDR (h) (P35968 20-1356): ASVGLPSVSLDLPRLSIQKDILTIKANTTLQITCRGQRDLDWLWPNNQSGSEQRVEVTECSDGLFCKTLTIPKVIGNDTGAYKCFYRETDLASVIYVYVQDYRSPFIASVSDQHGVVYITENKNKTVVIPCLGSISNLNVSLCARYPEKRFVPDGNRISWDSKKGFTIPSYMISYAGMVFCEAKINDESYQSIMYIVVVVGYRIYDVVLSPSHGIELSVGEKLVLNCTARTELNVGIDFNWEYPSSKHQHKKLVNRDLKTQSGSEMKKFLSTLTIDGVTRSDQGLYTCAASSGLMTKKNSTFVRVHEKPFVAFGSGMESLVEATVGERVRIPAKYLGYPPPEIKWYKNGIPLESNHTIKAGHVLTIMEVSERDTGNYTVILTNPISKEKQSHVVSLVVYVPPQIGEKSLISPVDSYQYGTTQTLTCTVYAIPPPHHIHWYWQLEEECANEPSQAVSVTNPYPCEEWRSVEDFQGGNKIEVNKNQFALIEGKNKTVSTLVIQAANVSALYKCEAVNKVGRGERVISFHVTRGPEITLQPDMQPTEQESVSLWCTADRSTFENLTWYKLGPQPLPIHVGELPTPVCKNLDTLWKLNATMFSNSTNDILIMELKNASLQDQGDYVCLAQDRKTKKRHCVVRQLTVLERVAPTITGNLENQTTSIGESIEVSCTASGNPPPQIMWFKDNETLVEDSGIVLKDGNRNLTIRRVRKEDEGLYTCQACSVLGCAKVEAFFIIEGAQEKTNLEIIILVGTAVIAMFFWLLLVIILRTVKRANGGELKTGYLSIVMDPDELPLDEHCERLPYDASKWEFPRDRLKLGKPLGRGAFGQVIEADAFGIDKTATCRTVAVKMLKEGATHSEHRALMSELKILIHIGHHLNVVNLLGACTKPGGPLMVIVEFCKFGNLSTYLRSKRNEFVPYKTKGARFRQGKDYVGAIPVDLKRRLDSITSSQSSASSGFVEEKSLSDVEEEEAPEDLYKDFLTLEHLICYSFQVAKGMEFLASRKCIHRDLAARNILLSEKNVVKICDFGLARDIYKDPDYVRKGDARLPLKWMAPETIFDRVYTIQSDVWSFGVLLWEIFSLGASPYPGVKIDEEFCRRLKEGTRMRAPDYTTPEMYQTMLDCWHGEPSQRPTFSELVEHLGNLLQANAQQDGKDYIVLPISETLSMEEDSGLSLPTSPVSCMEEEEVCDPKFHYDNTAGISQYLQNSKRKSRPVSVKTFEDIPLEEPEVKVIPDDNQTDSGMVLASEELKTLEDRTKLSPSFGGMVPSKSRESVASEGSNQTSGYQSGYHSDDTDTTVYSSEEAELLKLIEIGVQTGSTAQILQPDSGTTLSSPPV
(In TR-FRET formats the signal depends on donor and acceptor labels being close together.)

In a further assay the target is FGFR4 (h) (Homo sapiens, UniProt P22455). Nature of the assay: FGFR4 (enzymatic assay), TR-FRET. As to conditions: FGFR 4 pIC50, enzymatic assay. The assay is classed as biochemical.
Sequence of FGFR4 (h) (P22455 22-802): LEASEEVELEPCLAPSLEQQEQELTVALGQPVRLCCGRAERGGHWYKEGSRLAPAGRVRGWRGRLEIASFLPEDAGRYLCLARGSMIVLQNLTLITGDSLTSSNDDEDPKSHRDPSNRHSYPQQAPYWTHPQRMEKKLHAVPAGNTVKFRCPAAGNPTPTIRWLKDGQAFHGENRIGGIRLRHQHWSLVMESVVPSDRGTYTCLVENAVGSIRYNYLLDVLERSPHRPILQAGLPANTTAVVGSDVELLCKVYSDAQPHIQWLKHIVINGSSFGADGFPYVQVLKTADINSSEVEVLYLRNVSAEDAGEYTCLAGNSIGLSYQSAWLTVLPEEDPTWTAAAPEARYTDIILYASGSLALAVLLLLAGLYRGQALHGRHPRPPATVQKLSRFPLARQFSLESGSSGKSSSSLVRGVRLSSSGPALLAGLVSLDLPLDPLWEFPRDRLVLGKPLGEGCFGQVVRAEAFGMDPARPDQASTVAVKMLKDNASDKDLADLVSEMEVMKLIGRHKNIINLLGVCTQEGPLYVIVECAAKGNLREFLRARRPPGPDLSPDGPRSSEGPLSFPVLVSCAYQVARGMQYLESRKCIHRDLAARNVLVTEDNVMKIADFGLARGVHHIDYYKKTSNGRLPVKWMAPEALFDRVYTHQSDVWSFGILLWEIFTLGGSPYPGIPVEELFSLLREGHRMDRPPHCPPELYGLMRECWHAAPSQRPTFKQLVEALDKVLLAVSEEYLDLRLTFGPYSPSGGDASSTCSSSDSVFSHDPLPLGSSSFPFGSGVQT

Bounds are passed on as bounds.

Consider `COc1cc(OC)c(F)c(N(Cc2n[nH]c(=O)o2)c2ccc3ncc(-c4cnn(C)c4)nc3n2)c1` [Compound 284], for which the results for the IC50 (in assay [1]; at KDR (h); on FGFR4 (h)) were > 10000 nM, 63.1 nM and 5.5 nM, respectively.
The corresponding values for `COc1cc(/N=c2\ccc3ncc(-c4cnn(C)c4)nc3n2Cc2cc(C)no2)c(F)c(OC)c1` [Compound 184] are > 10000 nM, 4.79 nM and 1.17 nM.
For `COc1cc(O)c(F)c(N(Cc2ncc[nH]2)c2ccc3ncc(-c4cnn(C)c4)nc3n2)c1` [Compound 96], the IC50 in assay [1] is > 10000 nM; at KDR (h), 11.5 nM; against FGFR4 (h), 1.78 nM.
Regarding `COc1cc(OC)c(F)c(N(Cc2ncc[nH]2)c2ccc3ncc(-c4cccnc4)nc3n2)c1` [Compound 190a], the IC50 in assay [1] was > 10000 nM; at KDR (h), 28.8 nM; at FGFR4 (h), 2.95 nM.
The corresponding values for `COc1cc(/N=c2\ccc3ncc(-c4cnn(C)c4)nc3n2CC2COC2)c(F)c(OC)c1` [Compound 143] are > 10000 nM, 5.01 nM and 1.02 nM.
For `COc1cc(OC)c(F)c(N(CCNC2COC2)c2ccc3ncc(-c4cnn(C)c4)nc3n2)c1` [Compound 221], in that order: > 10000 nM, ~29.5 nM and 6.61 nM.
The corresponding values for `CCn1cc(-c2cnc3ccc(N(Cc4ncc[nH]4)c4cc(OC)cc(OC)c4F)nc3n2)cn1` [Compound 223] are > 10000 nM, 7.08 nM and 1.29 nM.
Regarding `COc1cc(OC)c(F)c(N(Cc2c(C)noc2C)c2ccc3ncc(-c4cnn(C)c4)nc3n2)c1` [Compound 178], the IC50 in assay [1] is > 10000 nM; at KDR (h) it was 61.7 nM; against FGFR4 (h), 19.5 nM.
For `COc1cc(OC)cc(N(Cc2nc(OC)cc(OC)n2)c2ccc3ncc(-c4cnn(C)c4)nc3n2)c1` [Compound 174], in that order: > 10000 nM, 89.1 nM and 77.6 nM.
The corresponding values for `COc1cc(OC)cc(N(CC2COC2)c2ccc3ncc(-c4cnn(C)c4)nc3n2)c1` [Compound 142] are > 10000 nM, 74.1 nM and 30.2 nM.
As to `COc1cc(/N=c2\ccc3ncc(-c4cnn(C)c4)nc3n2CCN2CCCC2=O)c(F)c(OC)c1` [Compound 156], the figures for the IC50 (in assay [1]; on KDR (h); on FGFR4 (h)) were > 10000 nM, 29.5 nM and 6.92 nM, respectively.
`COc1cc(OC)c(F)c(N(Cc2ncc[nH]2)c2ccc3ncc(-c4cnn(C(CO)CCl)c4)nc3n2)c1` (stereo not drawn) [Compound 209]: the IC50 in assay [1] is > 10000 nM; at KDR (h), 7.59 nM; at FGFR4 (h), 1.12 nM.
As for `COc1cc(OC)c(F)c(N(Cc2nc(Br)c[nH]2)c2ccc3ncc(-c4cnn(C)c4)nc3n2)c1` [Compound 238], the IC50 is > 10000 nM in assay [1], 11.2 nM on KDR (h) and 1.12 nM against FGFR4 (h).
For `COc1cc(/N=c2\ccc3ncc(-c4cnn(C)c4)nc3n2Cc2cc(C)on2)c(F)c(OC)c1` [Compound 181], in that order: > 10000 nM, 6.76 nM and 1.05 nM.
The corresponding values for `COc1cc(/N=c2\ccc3ncc(-c4cnn(C)c4)nc3n2CC2CCC(=O)N2)cc(OC)c1` (stereo not drawn) [Compound 248] are > 10000 nM, 20 nM and 8.13 nM.
For `COc1cc(OC)c(F)c(N(CCN)c2ccc3ncc(-c4cnn(C)c4)nc3n2)c1` [Compound 168], in that order: > 10000 nM, 15.8 nM and 4.57 nM.
Turning to `COc1cc(OC)cc(N(Cc2ncc[nH]2)c2ccc3ncc(-c4ccn(C)c4)nc3n2)c1` [Compound 198], the IC50 is > 10000 nM in assay [1], 4.57 nM on KDR (h) and 0.661 nM at FGFR4 (h).
For `COc1cc(OC)c(F)c(N(Cc2ncco2)c2ccc3ncc(-c4cnn(C)c4)nc3n2)c1` [Compound 177], in that order: > 10000 nM, 10.5 nM and 2.45 nM.
